# Source: US20080274192A1, “Pharmaceutical Compositions Comprising an Amorphous Form of a Vegf-R-Inhibitor” (PFIZER INC., priority 2005, published 2008)
# How the values were obtained:
# Type in all cases: physicochemical
# [1] = in vitro dissolution test in MFD solution, dosed as oral powder for constitution; settings: for AUC90 (area under the concentration-versus-time curve during the initial ninety minutes) / MDC90 (maximum dissolved concentration during the initial ninety minutes): MFD solution pH 6.5, 37° C., 200 μgA/mL dosed; for MDC90 (maximum dissolved concentration during the initial ninety minutes): pre-wetted with PBS/Methocel A/HPMCAS-H (OPC model)
# Description: An in vitro dissolution test was performed to determine the dissolution performance of amorphous Compound A relative to crystalline Compound A. For this test, a sufficient amount of material was added to a microcentrifuge test tube so that the concentration of Compound A would have been 200 μgA/mL, if all of the compound had dissolved. The test was run in duplicate. First, 50 μL PBS containing 0.5 wt % Methocel A and 5 mg/mL HPMCAS-H was added to the sample in the tube and mixed using a vortex mixer, to model an oral powder for constitution dosage form. The tubes were placed in a 37° C. temperature-controlled chamber, and 1.8 mL PBS at pH 6.5 and 290 mOsm/kg, containing 7.3 mM sodium taurocholic acid and 1.4 mM of 1-palmitoyl-2-oleyl-sn-glycero-3-phosphocholine, was added to each respective tube. The samples were quickly mixed using a vortex mixer for about 60 seconds. The samples were centrifuged at 13,000 G at 37° C. for 1 minute. The resulting supernatant solution was then sampled and diluted 1:6 (by volume) with methanol and then analyzed by HPLC as described above. The contents of each tube were mixed on the vortex mixer and allowed to stand undisturbed at 37° C. until the next sample was taken. Samples were collected at 4, 10, 20, 40, 90, and 1200 minutes.
# A similar test was performed with crystalline Compound A alone (Example 1), and a sufficient amount of material was added so that the concentration of compound would have been 200 μgA/mL, if all of the compound had dissolved.
# The concentrations of Compound A obtained in these samples were used to determine the maximum dissolved concentration of Compound A (“MDC90”) and the area under the concentration-versus-time curve (“AUC90”) during the initial ninety minutes.
# For these tests, a sufficient amount of material was added so that the concentration of Compound A would have been 200 μgA/mL, if all of the compound had dissolved. The results for the solid amorphous dispersion of Example 2 are included in Table 6, as are the results for tests with pure amorphous Compound A (Example 1) and crystalline Compound A (Example 1).
# [2] = in vitro dissolution test in MFD solution, material added directly; settings: MFD solution pH 6.5, 37° C., 200 μgA/mL dosed, no OPC pre-wetting
# Description: An in vitro dissolution test was performed to determine the dissolution performance of the solid amorphous dispersion of Compound A relative to crystalline Compound A. For this test, a sufficient amount of material was added to a microcentrifuge test tube so that the concentration of Compound A would have been 200 μgA/mL, if all of the compound had dissolved. The test was run in duplicate. The tubes were placed in a 37° C. temperature-controlled chamber, and 1.8 mL PBS at pH 6.5 and 290 mOsm/kg, containing 7.3 mM sodium taurocholic acid and 1.4 mM of 1-palmitoyl-2-oleyl-sn-glycero-3-phosphocholine, was added to each respective tube. The samples were quickly mixed using a vortex mixer for about 60 seconds. The samples were centrifuged at 13,000 G at 37° C. for 1 minute. The resulting supernatant solution was then sampled and diluted 1:6 (by volume) with methanol and analyzed by high-performance liquid chromatography (HPLC). HPLC analysis was performed using a Waters C18 column. The mobile phase consisted of 65% 20 mM ammonium phosphate, adjusted to pH 3 with H3PO4, and 35% acetonitrile. UV absorbance was measured at 350 nm. The contents of each tube were mixed on the vortex mixer and allowed to stand undisturbed at 37° C. until the next sample was taken. Samples were collected at 4, 10, 20, 40, 90, and 1200 minutes. […]
# [3] = solubility in model fasted duodenal solution; settings: fassif, pH 6.5, 37° C.
# Excerpt: Compound A can exist in several different crystalline forms, as described in U.S. Provisional Application 60/624,665, filed on Nov. 2, 2004, which is incorporated herein by reference. Compound A in the crystalline form referred to as polymorphic Form IV has a pKa of about 4.2, and a solubility that is dependent on the pH of the solution, with the solubility being higher at low pH than at high pH. […] This pH-dependent solubility combined with a low in vivo rate of absorption results in low oral bioavailability, as well as significant subject-to-subject pharmacokinetic variability, for crystalline Compound A. Accordingly, there is a need to improve the bioavailability and reduce pharmacokinetic variability of Compound A relative to its crystalline form.
# pKa of Compound A = settings: crystalline polymorphic Form IV
Structure (SMILES),AUC90 (area under the concentration-versus-time curve during the initial ninety minutes) ([1]; OPC model),MDC90 (maximum dissolved concentration during the initial ninety minutes) [1],AUC90 (area under the concentration-versus-time curve during the initial ninety minutes) [2],MDC90 (maximum dissolved concentration during the initial ninety minutes) [2],solubility [3],pKa (pKa of Compound A),"AUC90 relative to crystalline Compound A ([1]; OPC model, MFD solution)","MDC90 relative to crystalline Compound A ([1]; OPC model, MFD solution)"
"CNC(=O)c1ccccc1Sc1ccc2c(/C=C/c3ccccn3)n[nH]c2c1 [Crystalline Compound A, 6-[2-(methylcarbamoyl)phenylsulfanyl]-3-E-[2-(pyridin-2-yl)ethenyl]indazole]",300 min * μgA/mL,3 μgA/mL,200 min * μgA/mL,3 μgA/mL,,,,
"CNC(=O)c1ccccc1Sc1ccc2c(/C=C/c3ccccn3)n[nH]c2c1 [Compound A, 6-[2-(methylcarbamoyl)phenylsulfanyl]-3-E-[2-(pyridin-2-yl)ethenyl]indazole]",,,,,~4 µg/mL,~4.2,,
"CNC(=O)c1ccccc1Sc1ccc2c(/C=C/c3ccccn3)n[nH]c2c1 [Example 1, 6-[2-(methylcarbamoyl)phenylsulfanyl]-3-E-[2-(pyridin-2-yl)ethenyl]indazole]",1700 min * μgA/mL,48 μgA/mL,,,,,5.7 fold,16 fold
